Source: patent publication US20050112179A1, “Method to reduce stool odor of companion animals” (priority 2003, published 2005)
Where two headings read alike, the source gives them in different places.

Key:
[1] = test system: flatulence; details: dogs, literature report; cited from earlier work
[2] = test system: stool odor compounds; details: 3 weeks; for Alcohols / Aldehydes / Carboxylic acids / Esters / Heterocycles / Indoles / Ketones / Phenols / Thiols/Sulfides: dog stool, area under chromatogram peak
Experimental: (§1) An experiment was conducted to characterize the effects of zinc acetate on stool odor compounds in dogs. To a control food, which was a dry food composed of kibbles containing a base level of 150 ppm zinc in the form of zinc acetate, various amounts of zinc in the form of zinc acetate were added as a coating on the kibbles. This was done by hand coating (sprinkling) fine zinc acetate powder on the kibble in a rotating drum in a two-step coating process after all other topical ingredients had been added by in-line enrobing. Ten dogs were fed control food with no added zinc, ten dogs were fed control food with 400 ppm zinc added, ten dogs were fed control food with 600 ppm zinc added, and ten dogs were fed control food with 900 ppm zinc added. The dogs were fed one of these diets for three weeks. At the end of three weeks, stool samples were collected and analyzed by putting a standard amount of stool in a glass container and incubating a solid phase microextraction fiber in the headspace. Volatiles bound to the fiber were eluted onto a gas chromatograph for analysis. The compounds were identified using a […].
(§2) The numbers indicate relative differences as measured by the area under the peak in a chromatogram.

[3] = test system: stool odor compounds; details: one month; for Alcohols / Aldehydes / Carboxylic acids / Esters / Heterocycles / Indoles / Ketones / Phenols / Thiols/Sulfides: cat stool, area under chromatogram peak
Experimental: as §1
An experiment was conducted to characterize the effects of zinc acetate on stool odor compounds in cats. To a control food, which was a dry food composed of kibbles containing a base level of 160 ppm zinc in the form of zinc acetate, various amounts of zinc were added in the form of zinc acetate as in Example 1. Eight cats were fed control food with no added zinc, eight cats were fed control food with 860 ppm zinc acetate added, seven cats were fed control food with 1200 ppm zinc acetate added, and seven cats were fed control food with 1800 ppm zinc acetate added. The cats were fed one of these diets for one month. At the end of the month, stool samples were collected and analyzed as described in Example 1.
as §2

[4] = 400 ppm added zinc on control food
[5] = 600 ppm added zinc on control food
[6] = 900 ppm added zinc on control food
[7] = 860 ppm added zinc on control food
[8] = 1200 ppm added zinc on control food
[9] = 1800 ppm added zinc on control food

## CC(=O)[O-].CC(=O)[O-].[Zn+2] [zinc acetate]
[1]
  number of flatulent episodes: decreased
  odor of gas: decreased
  total gas production: decreased
[2]; [4]
  Alcohols: 17.3 ± 12.5 ×10^5
  Aldehydes: 0.45 ± 0.3 ×10^3
  Carboxylic acids: 3.79 ± 3.55 ×10^4
  Esters: 34.3 ± 34.0 ×10^5
  Heterocycles: 0.94 ± 0.37 ×10^4
  Indoles: 2.64 ± 2.19 ×10^4
  Ketones: 179 ± 0.89 ×10^6
  Phenols: 9.62 ± 6.0 ×10^4
  Thiols/Sulfides: 8.69 ± 6.16 ×10^4
[2]; [5]
  Alcohols: 12.3 ± 0.9 ×10^5
  Aldehydes: 0.56 ± 0.51 ×10^3
  Carboxylic acids: 22.7 ± 32.2 ×10^4
  Esters: 34.1 ± 34.4 ×10^5
  Heterocycles: 1.19 ± 0.54 ×10^4
  Indoles: 2.0 ± 0.86 ×10^4
  Ketones: 201 ± 66.5 ×10^6
  Phenols: 9.17 ± 5.64 ×10^4
  Thiols/Sulfides: 5.14 ± 2.4 ×10^4
[2]; [6]
  Alcohols: 23.4 ± 14.3 ×10^5
  Aldehydes: 1.09 ± 1.29 ×10^3
  Carboxylic acids: 27.2 ± 21.2 ×10^4
  Esters: 32.6 ± 0.9 ×10^5
  Heterocycles: 1.13 ± 0.49 ×10^4
  Indoles: 1.78 ± 2.45 ×10^4
  Ketones: 160 ± 63.1 ×10^6
  Phenols: 4.08 ± 3.58 ×10^4
  Thiols/Sulfides: 4.91 ± 1.3 ×10^4
[2]; dogs, 400-900 ppm added zinc vs control food
  Effect of addition of zinc to the food on stool odor compound levels (in words): decreased levels of phenols, thiols and sulfides and indoles
[3]; [7]
  Alcohols: 13.2 ± 27 ×10^4
  Aldehydes: 5.6 ± 3.6 ×10^4
  Carboxylic acids: 317 ± 160 ×10^4
  Esters: 78.4 ± 22.9 ×10^4
  Heterocycles: 0.62 ± 0.13 ×10^4
  Indoles: 0.39 ± 0.3 ×10^4
  Ketones: 25.6 ± 8.14 ×10^4
  Phenols: 10.3 ± 4.3 ×10^4
  Thiols/Sulfides: 6.2 ± 2.3 ×10^4
[3]; [8]
  Alcohols: 6.87 ± 10.8 ×10^4
  Aldehydes: 3.6 ± 1.7 ×10^4
  Carboxylic acids: 225 ± 78.1 ×10^4
  Esters: 76.9 ± 47.5 ×10^4
  Heterocycles: 0.62 ± 0.22 ×10^4
  Indoles: 0.88 ± 0.62 ×10^4
  Ketones: 60.7 ± 38.1 ×10^4
  Phenols: 12.6 ± 4.7 ×10^4
  Thiols/Sulfides: 7.7 ± 3.4 ×10^4
[3]; [9]
  Alcohols: 15.1 ± 23.3 ×10^4
  Aldehydes: 1.9 ± 1.6 ×10^4
  Carboxylic acids: 146 ± 144 ×10^4
  Esters: 28.7 ± 1.8 ×10^4
  Heterocycles: 0.46 ± 0.17 ×10^4
  Indoles: 2.3 ± 1.5 ×10^4
  Ketones: 42.2 ± 26.2 ×10^4
  Phenols: 7.2 ± 2.7 ×10^4
  Thiols/Sulfides: 6.8 ± 3.9 ×10^4
[3]; cats, 860-1800 ppm added zinc vs control food
  Effect of addition of zinc to the food on stool odor compound levels (in words): decreased stool levels of heterocycles, indoles, aldehydes and phenols
